Reference: US6645976B1 (Eli Lilly and Company, priority 1994, dated 2003)
Where a name gives a salt, the structure may show the parent alone.

Assays:
[1] = target: T1, recombinant human secreted phospholipase A2 (Homo sapiens, UniProt P14555); assay: sPLA2 Chromogenic Assay (Assay 1); format: biochemical; conditions: diheptanoyl thio-PC substrate, pH 7.5, 40° C. for 30 minutes, absorbance at 405 nanometers
T1 sequence (P14555 21-144): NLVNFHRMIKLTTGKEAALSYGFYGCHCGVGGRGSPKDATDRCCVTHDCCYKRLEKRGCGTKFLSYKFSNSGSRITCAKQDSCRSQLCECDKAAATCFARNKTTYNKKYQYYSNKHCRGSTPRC

Row | Structure (SMILES) | melting point | IC50 [1]
1 | CCc1c(C(=O)C(N)=O)c2c(OCC(=O)OC(C)(C)C)cccn2c1Cc1ccccc1 [Compound 38a, (3-Benzyl-8-(t-butoxycarbonylmethyloxy)-2-ethylindolizin-1-yl)glyoxylamide] | 161 to 162 °C | 52 nM
2 | CCc1c(C(=O)C(N)=O)c2c(OCC(=O)OCC(=O)OC(C)(C)C)cccn2c1Cc1ccccc1-c1ccccc1 [Compound 59d] | 102 to 104 °C | 83 nM
3 | CCc1c(C(=O)C(N)=O)c2c(OCC(=O)O)cccn2c1Cc1cccc(-c2ccccc2)c1 [Compound 58g, 2-(8-Carboxymethyloxy-2-ethyl-3-(m-phenylbenzyl)indlolin-1-yl)glyoxylamide] | 241 to 244 °C | 9 nM
4 | CCc1c(CC(N)=O)c2c(OCC(=O)O)cccn2c1-c1cccc2ccccc12 [Compound 22w, 2-(8-(Carboxymethyloxy)-2-ethyl-3-(1-naphthyl)indolizin-1-yl)acetamide] | 129 to 133 °C | 
5 | CCc1c(C(=O)C(N)=O)c2cc(OCCCCCC(=O)O)ccn2c1Cc1ccccc1-c1ccccc1 | 84 to 94 °C (dec.) | 
6 | CCc1c(C(=O)C(N)=O)c2c(OCc3ccccc3)cccn2c1Cc1cccs1 [Compound 49k, 2-(8-Benzyloxy-2-ethyl-3-(thiophen-2-ylmethyl)indolizin-1-yl)glyoxylamide] | 191 to 192 °C | 790 nM
7 | CCc1c(CC(N)=O)c2c(OCC(=O)OCc3ccccc3)cccn2c1Cc1cccc(Cl)c1 [Compound 21y, 2-(8-(Benzyloxycarbonylmethyloxy)-3-(m-chlorobenzyl)-2-ethylindolizin-1-yl)acetamide] | 157 to 158 °C | 350 nM
8 | CCc1c(C(=O)C(N)=O)c2c(OCC(=O)OCCN3CCOCC3)cccn2c1Cc1ccccc1-c1ccccc1 [Compound 59i, 2-(3-(Biphenyl-2-yl-methyl)-2-ethyl-8-(2-morpholinoethyloxycarbonylmethyloxy)indolizine-1-yl)glyoxylamide] | 113 to 120 °C (dec.) | 22 nM
9 | CCc1c(C(=O)C(N)=O)c2c(OCC(=O)OC)cccn2c1Cc1ccccc1[N+](=O)[O-] [Compound 51n, 2-(2-Ethyl-8-(carbomethoxymethyloxy)-3-(o-nitrobenzyl)indolizine-1-yl)glyoxylamide] | 156 to 157 °C | 
10 | CCOC(=O)COc1ccn2c(Cc3ccccc3-c3ccccc3)c(CC)c(C(=O)C(N)=O)c2c1 [Compound 68b, 2-(7-(Carboethoxymethyloxy)-2-ethyl-3-(o-phenylbenzyl)indolizin-1-yl)glyoxylamide] | 119 to 121 °C | 
11 | CCOC(=O)COc1cccn2c(Cc3cccc(Cl)c3)c(CC)c(C(=O)C(N)=O)c12 [Compound 37h, (8-(Carbethoxymethyloxy)-3-(m-chlorobenzyl)-2-ethylindolizin-1-yl)glyoxylamide] | 172 to 175 °C | 
12 | NC(=O)C(=O)c1c(C2CC2)c(Cc2ccccc2-c2ccccc2)n2ccc(OCCCC(=O)O)cc12 [Compound 67b, 2-(7-(3-Carboxypropyloxy)-2-cyclopropyl-3-(o-phenylbenzyl)indolizin-1-yl)glyoxylamide] | 112 to 121 °C (dec.) | 
13 | CCc1c(CC(N)=O)c2c(OCC(=O)OC)cccn2c1Cc1ccccc1 [Compound 21v, Methyl (3-Benzyl-1-carbamoylmethyl-2-ethylindolizin-8-yloxy)acetate] | 159 to 163 °C | 
14 | COC(=O)COc1cccn2c(Cc3ccccc3-c3ccccc3)c(SC)c(C(=O)C(N)=O)c12 [Compound 82, 2-(8-(Carbomethoxymethyloxy)-2-methylthio-3-(o-phenylbenzyl)indolizin-1-yl)glyoxylamide] |  | 120 nM
15 | CCc1c(C(=O)C(=O)N(C)C)c2c(OCC(=O)O)cccn2c1Cc1ccccc1 [Compound 40c, (3-Benzyl-8-(carboxymethyloxy)-2-ethylindolizin-1-yl)glyoxyl-N,N-dimethylamide, reference compound] |  | > 50000 nM
16 | CCc1c(C(=O)C(N)=O)c2c(OCCC(=O)O)cccn2c1Cc1ccccc1-c1ccccc1 [Compound 70a, 2-(3-(Biphenyl-2-yl-methyl)-8-(carboxyethyloxy)-2-ethylindolizine-1-yl)glyoxylamide] |  | 44 nM
17 | CCc1c(C(=O)C(N)=O)c2c(OCC(=O)OC(C)OC(=O)OC)cccn2c1Cc1ccccc1-c1ccccc1 (stereo not drawn) [Compound 59b, 2-(3-Biphenyl-2-ylmethyl-8-(1-methoxycarbonyloxyethoxycarbonylmethoxy)-2-ethylindolizin-1-yl)glyoxylamide] |  | 11 nM
18 | CCc1c(C(=O)C(N)=O)c2c(OCC(=O)OC(C)C(=O)OC3CCCCC3)cccn2c1Cc1ccccc1-c1ccccc1 (stereo not drawn) [Compound 59e] |  | 55 nM
19 | CCc1c(CC(N)=O)c2cc(OCCCC(=O)O)ccn2c1Cc1ccccc1-c1ccccc1 [Compound 71b, 2-(7-(3-Carboxypropyloxy)-2-ethyl-3-(o-phenylbenzyl)indolizin-1-yl)acetamide] | 105 to 120 °C (dec.) | 
20 | CCc1c(CC(N)=O)c2c(OCC(=O)O)cccn2c1Cc1ccccc1-c1ccccc1 [Compound 22x, 2-(8-(Carboxymethyloxy)-2-ethyl-3-(o-phenylbenzyl)indolizin-1-yl)acetamide] |  | 14 nM
21 | CCc1c(C(=O)C(N)=O)c2c(OCC(=O)OC)cccn2c1Cc1cccc(C(F)(F)F)c1 [Compound 39i, (8-(Carbmethoxymethyloxy)-2-ethyl-3-(m-trifluoromethylbenzyl)indolizin-1-yl)glyoxylamide] | 136 to 137 °C | 

Continued, values first:

Row | melting point | IC50 [1] | Structure (SMILES)
22 | 147 to 148 °C | 550 nM | CCc1c(C(=O)C(N)=O)c2c(OCC(=O)OC)cccn2c1CC1CCCCCC1 [Compound 51d, 2-(8-(Carbomethoxymethyloxy)-3-cycloheptylmethyl-2-ethylindolizin-1-yl)glyoxylamide]
23 | 178 to 179 °C |  | COC(=O)COc1cccn2c(Cc3ccccc3-c3ccccc3)c(C3CC3)c(C(=O)C(N)=O)c12 [Compound 39k, (8-(Carbmethoxymethyloxy)-2-cyclopropyl-3-(o-phenylbenzyl)indolizin-1-yl)glyoxylamide]
24 | 176 to 177 °C | 17 nM | CCCC(CCC)Cc1c(CC)c(C(=O)C(N)=O)c2c(OCC(=O)O)cccn12 [Compound 52f, 2-(8-Carboxymethyloxy-2-ethyl-3-(2-propylpentyl)indolizin-1-yl)glyoxylamide]
25 | 198 to 199 °C | 890 nM | Cc1c(C(=O)C(N)=O)c2ccccn2c1Cc1ccccc1 [Compound 34, (3-Benzyl-2-methylindolizin-1-yl)glyoxylamide]
26 | 158 to 159 °C | 430 nM | CCc1c(C(=O)C(N)=O)c2c(OCC(=O)OC)cccn2c1CC1CCCC1 [Compound 51c, 2-(8-(Carbomethoxymethyloxy)-3-cyclopentylmethyl-2-ethylindolizin-1-yl)glyoxylamide]
27 | 193 to 195 °C | 23 nM | CCOC(=O)COc1cccn2c(Cc3ccccc3)c(C)c(C(=O)C(N)=O)c12 [Compound 37g, (3-Benzyl-8-(carbethoxymethyloxy)-2-methylindolizin-1-yl)glyoxylamide]
28 | 114 to 115 °C | 590 nM | CCCC(CCC)Cc1c(CC)c(C(=O)C(N)=O)c2c(OCC(=O)OC)cccn12 [Compound 51f, 2-(8-(Carbomethoxymethyloxy)-2-ethyl-3-(2-propylpentyl)indolizin-1-yl)glyoxylamide]
29 | > 300 °C |  | Cc1c(C(=O)C(N)=O)c2c(NCC(=O)O)cccn2c1CC1CCCCC1 [Compound 90b, 2-(8-Carboxymethylamino-3-cyclohexylmethyl-2-methyl-indolizin-1-yl)-glyoxylamide]
30 | 191 to 192 °C |  | COC(=O)COc1cccn2c(CC34CC5CC(CC(C5)C3)C4)c(C)c(C(=O)C(N)=O)c12 [Compound 51p, 2-(3-(Adamant-1-ylmethyl)-8-(carbomethoxymethyloxy)-2-methylindolizin-1-yl)glyoxylamide]
31 | 293 °C (dec.) |  | COC(=O)CNc1cccn2c(Cc3ccccc3)c(C)c(C(=O)C(N)=O)c12 [Compound 89a, 2-(3-Benzyl-8-methoxycarbonylmethylamino-2-methyl-indolizin-1-yl)-glyoxylamide]
32 | 224 to 225 °C |  | CCCCCC1CCC(Cc2c(CC)c(C(=O)C(N)=O)c3c(OCC(=O)O)cccn23)CC1 (stereo not drawn) (as salt: Na) [Compound 52o, 2-(8-(Carboxymethyloxy)-2-ethyl-3-(4-n-pentylcyclohexylmethyl)indolizin-1-yl)glyoxylamide]
33 | 182 °C |  | CCc1c(C(=O)C(N)=O)c2c(OCC(=O)OC)cccn2c1-c1cccs1 [Compound 51k]
34 | 186 to 188 °C |  | COC(=O)COc1cccn2c(Cc3ccccc3)c(C3CC3)c(C(=O)C(N)=O)c12 [Compound 51r, 2-(3-Benzyl-8-carbomethoxymethyloxy-2-cyclopropylindolizin-1-yl)-glyoxylamide]
35 | 173 to 177 °C |  | COC(=O)CNc1cccn2c(CC3CCCCC3)c(C)c(C(=O)C(N)=O)c12 [Compound 89b, 2-(8-methoxycarbonylmethylamino-3-cyclohexylmethyl-2-methyl-indolizin-1-yl)-glyoxylamide]
36 |  | 29 nM | NC(=O)C(=O)c1c(C2CC2)c(CC2CCCC2)n2cccc(OCC(=O)O)c12 [Compound 52v, 2-(8-(Carboxymethyloxy)-3-cyclopentylmethyl-2-cyclopropylindolizin-1-yl)glyoxylamide]
37 |  | 46 nM | NC(=O)C(=O)c1c(C2CC2)c(Cc2ccccc2)n2cccc(OCC(=O)O)c12 [Compound 52r, 2-(3-Benzyl-8-carboxymethyloxy-2-cyclopropylindolizin-1-yl)-glyoxylamide]
38 |  | 14 nM | Cc1c(C(=O)C(N)=O)c2c(OCC(=O)O)cccn2c1CC1CCCC1 [Compound 52w, 2-(8-(Carboxymethyloxy)-3-cyclopentylmethyl-2-methylindolizin-1-yl)glyoxylamide]
39 |  | 220 nM | CCc1c(C(=O)C(N)=O)c2c(OCC(=O)OC)cccn2c1Cc1cccs1 [Compound 51k]
